Measurements from patent US20040127395A1 (priority 2002, published 2004).

Assays:
[1] = biological target: human histamine H4 receptor (Homo sapiens, UniProt Q9H3N8); test: biochemical
[2] = tested on: mouse bone marrow-derived mast cells; test: Histamine-induced mast cell chemotaxis in vitro (transwell); format: cell-based; settings: for inhibition at 1 µM / inhibition at 10 µM: Mus musculus, Mast cell
Method: Mast cells were differentiated from bone marrow derived from BALB/c or C57bl/6j mice. Mice were sacrificed by asphyxiation under 95% CO2 and femurs were removed. Bone marrow was aseptically isolated from the femurs. The cells (5×10^5/mL) were cultured at 37° C. with 5% CO2 in culture medium consisting of RPMI with 10% FCS, 0.1 mM non-essential amino acids, 50 μg/mL penicillin/streptomycin and 20% conditioned WEHI-3 medium. Conditioned WEHI-3 medium was prepared from WEHI-3 cells (ATCC), which were cultured in Iscoves Dulbeccos medium with 10% FCS, 4 mM L-glutamine, 1.5 g/L sodium carbonate, 0.05 μM beta-mercaptoethanol and 50 μg/mL penicillin/streptomycin. The filtered supernatant was used as the conditioned WEHI-3 medium. After 16 h in culture, the bone marrow cells were transferred to a new flask. The medium was refreshed once per week. After four weeks, the cells were tested by flow cytometry for IgE receptor and CD117 (c-kit) expression. Mast cells were incubated with anti-DNP IgE (ICN Pharmaceuticals, Costa Mesa, Calif.) or vehicle for 30 min, followed by FITC labeled anti-IgE (Pharmingen) or FITC labeled CD117 (Pharmingen) for 30 min on ice. The cultured mast cells consisted of a homogeneous population which was >99% IgE receptor positive and >99% CD117 positive. Mast cells of four to eight weeks culture time were used for experiments.
Transwells (Costar, Cambridge, Mass.) of a pore size of […] were coated with 100 μL of 100 ng/mL human fibronectin (Sigma) for 2 h at room temperature. […] Mast cells (2×10^5/well) were added to the top chamber. The plates were incubated for 3 h at 37° C. Transwells were removed and the number of cells in the bottom chamber was counted for 60 sec using a flow cytometer.

human eosinophils = test: Histamine-induced eosinophil shape change (GAFS); format: cell-based; settings: for effect on histamine-induced eosinophil shape change / Fold Change: antagonist 10 μM; for Fold Change: eosinophil shape change
Method: Human granulocytes were isolated from human blood by a Ficoll gradient. The red blood cells were lysed with 5-10× Qiagen lysis buffer at room temperature for 5-7 min. Granulocytes were harvested and washed once with FACS buffer. The cells were resuspended at a density of 2×10^6 cells/mL in reaction buffer. […] Ten minutes later, the cells were transferred to ice and fixed with 250 μL of ice-cold fixative buffer (2% formaldehyde) for 1 min.

[3] = tested on: mast cells in the mouse trachea; test: Histamine-induced accumulation of mast cells in the mouse trachea in vivo; settings: 0.1 M histamine aerosol, 20 min on 2 consecutive days

Chain of human histamine H4 receptor (Q9H3N8 whole entry): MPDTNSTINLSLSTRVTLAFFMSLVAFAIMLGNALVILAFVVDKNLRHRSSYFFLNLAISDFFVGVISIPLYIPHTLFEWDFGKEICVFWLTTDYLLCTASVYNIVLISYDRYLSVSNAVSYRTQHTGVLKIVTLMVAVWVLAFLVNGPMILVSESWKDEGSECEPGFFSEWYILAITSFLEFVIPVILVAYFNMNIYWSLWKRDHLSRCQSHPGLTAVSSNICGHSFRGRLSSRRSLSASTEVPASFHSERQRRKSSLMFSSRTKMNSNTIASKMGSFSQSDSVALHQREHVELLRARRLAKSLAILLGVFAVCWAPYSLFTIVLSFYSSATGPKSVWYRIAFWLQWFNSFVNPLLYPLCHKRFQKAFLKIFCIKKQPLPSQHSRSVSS

## COc1cccc(-c2ccc3[nH]c(C(=O)N4CCN(C)CC4)cc3c2)c1 [[5-(3-Methoxy-phenyl)-1H-indol-2-yl]-(4-methyl-piperazin-1-yl)-methanone]
[1]
  Ki: 145 nM

## CN1CCN(C(=O)c2cc3cc(Cl)cc(Cl)c3[nH]2)CC1 [(5,7-Dichloro-1H-indol-2-yl)-(4-methyl-piperazin-1-yl)-methanone]
[1]
  Ki: 10 nM

## CN1CCN(C(=O)c2cc3cc(Br)ccc3o2)CC1 [(5-Bromo-benzofuran-2-yl)-(4-methyl-piperazin-1-yl)-methanone]
[1]
  Ki: 95 nM

## Cc1cc(Cl)cc2cc(C(=O)N3CCN(C)CC3)[nH]c12 [(5-Chloro-7-methyl-1H-indol-2-yl)-(4-methyl-piperazin-1-yl)-methanone]
[2]
  inhibition at 1 µM: 100%
  inhibition at 10 µM: 97%
[1]
  Ki: 1 nM

## CN1CCN(C(=O)c2cc3c(Cl)c(Cl)ccc3[nH]2)CC1 [(4,5-Dichloro-1H-indol-2-yl)-(4-methyl-piperazin-1-yl)-methanone]
[1]
  Ki: 11 nM

## CN(C)CCOC(c1ccccc1)c1ccccc1 [diphenhydramine]
Human eosinophils
  effect on histamine-induced eosinophil shape change: did not alter

## Cc1cc(C)c2[nH]c(C(=O)N3CCN(C)CC3)cc2c1 [(5,7-Dimethyl-1H-indol-2-yl)-(4-methyl-piperazin-1-yl)-methanone]
[1]
  Ki: 30 nM

## O=C(c1cc2cc(Cl)ccc2[nH]1)N1CCNCC1 [(5-Chloro-1H-indol-2-yl)-piperazin-1-yl-methanone]
[2]
  inhibition at 1 µM: 99%
[1]
  Ki: 10 nM

## Cc1cccc2cc(C(=O)N3CCN(C)CC3)[nH]c12 [(7-Methyl-1H-indol-2-yl)-(4-methyl-piperazin-1-yl)-methanone]
[1]
  Ki: 6.6 nM

## Nc1cccc2cc(C(=O)N3CCNCC3)[nH]c12 [(7-Amino-1H-indol-2-yl)-piperazin-1-yl-methanone]
[1]
  Ki: 43 nM

## CN1CCN(C(=O)c2cc3cccc(N)c3[nH]2)CC1 [(7-Amino-1H-indol-2-yl)-(4-methyl-piperazin-1-yl)-methanone]
[2]
  inhibition at 1 µM: 99%
[1]
  Ki: 7 nM

## CN1CCN(C(=O)c2cc3cc(F)ccc3[nH]2)CC1 [(5-Fluoro-1H-indol-2-yl)-(4-methyl-piperazin-1-yl)-methanone]
[1]
  Ki: 18 nM

## CC1CN(C(=O)c2cc3cc(Cl)ccc3[nH]2)CCN1C (centres unmarked) [(5-Chloro-1H-indol-2-yl)-(3,4-dimethyl-piperazin-1-yl)-methanone]
[1]
  Ki: 27 nM

## CC1CN(C(=O)c2cc3cc(Cl)ccc3[nH]2)CCN1 (centres unmarked) [(5-Chloro-1H-indol-2-yl)-(3-methyl-piperazin-1-yl)-methanone]
[1]
  Ki: 41 nM

## Cc1ccc2[nH]c(C(=O)N3CCN(C)CC3)cc2c1 [(5-Methyl-1H-indol-2-yl)-(4-methyl-piperazin-1-yl)-methanone]
[1]
  Ki: 11 nM

## CN1CCN(C(=O)c2cc3c(Br)cccc3[nH]2)CC1 [(4-Bromo-1H-indol-2-yl)-(4-methyl-piperazin-1-yl)-methanone]
[1]
  Ki: 40 nM

## CNC(=C[N+](=O)[O-])NCCSCc1ccc(CN(C)C)o1 [ranatidine]
Human eosinophils
  effect on histamine-induced eosinophil shape change: did not alter
Human eosinophils; histamine 0 μM
  Fold Change: 1.00
Human eosinophils; histamine 0.01 μM
  Fold Change: 1.04
Human eosinophils; histamine 0.1 μM
  Fold Change: 1.21
Human eosinophils; histamine 1 μM
  Fold Change: 1.49
Human eosinophils; histamine 10 μM
  Fold Change: 1.64

## NCCc1c[nH]cn1 [Histamine, reference compound]
[2]; histamine in lower chamber (1.25-20 μM), FIG. 1
  migrated mast cells in the lower chamber: dose-dependent increase in migrated mast cells
[3]
  migration of mast cells in the trachea: induces a migration of mast cells into the sub-epithelial space
Human eosinophils; histamine as stimulus
  shape change in eosinophils: induces a dose-dependent shape change

## CC1CN(C(=O)c2cc3scc(Br)c3[nH]2)CCN1 (centres unmarked) [(3-Bromo-4H-thieno[3,2-b]pyrrol-5-yl)-(3-methyl-piperazin-1-yl)-methanone]
[2]
  inhibition at 1 µM: 0%
  inhibition at 10 µM: 0%

## O=C(c1cc2cc(Cl)sc2[nH]1)N1CCN2CCCC2C1 (centres unmarked) [(2-Chloro-6H-thieno[2,3-b]pyrrol-5-yl)-(hexahydro-pyrrolo[1,2-a]pyrazin-2-yl)-methanone]
[2]
  inhibition at 1 µM: 0%
  inhibition at 10 µM: 0%

## C[C@H]1CN(C(=O)c2cc3cc(Cl)ccc3[nH]2)CCN1 [(5-Chloro-1H-indol-2-yl)-((S)-3-methyl-piperazin-1-yl)-methanone]
[1]
  Ki: 36 nM

## CN1CCN(C(=O)c2cc3cccc(O)c3[nH]2)CC1 [(7-Hydroxy-1H-indol-2-yl)-(4-methyl-piperazin-1-yl)-methanone]
[1]
  Ki: 47 nM

## CN1CCN(C(=O)c2cc3sc(Cl)cc3[nH]2)CC1 [(2-Chloro-4H-thieno[3,2-b]pyrrol-5-yl)-(4-methyl-piperazin-1-yl)-methanone]
[2]
  inhibition at 1 µM: 92%

## CN1CCN(C(=O)c2cc3cccc(Cl)c3[nH]2)CC1 [(7-Chloro-1H-indol-2-yl)-(4-methyl-piperazin-1-yl)-methanone]
[1]
  Ki: 23 nM

## O=C(c1cc2cc(Cl)ccc2[nH]1)N1CCN(CCO)CC1 [(5-Chloro-1H-indol-2-yl)-[4-(2-hydroxy-ethyl)-piperazin-1-yl]-methanone]
[1]
  Ki: 25 nM

## CN1CCN(C(=S)c2cc3ccccc3[nH]2)CC1 [(1H-Indol-2-yl)-(4-methyl-piperazin-1-yl)-methanethione]
[1]
  Ki: 132 nM

## CN1CCN(C(=O)c2cc3cc(O)ccc3[nH]2)CC1 [(5-Hydroxy-1H-indol-2-yl)-(4-methyl-piperazin-1-yl)-methanone]
[1]
  Ki: 19 nM

## S=C(NC1CCCCC1)N1CCC(c2cnc[nH]2)CC1 [Thioperamide]
Human eosinophils; Eosinophil, human eosinophils, read-out: IC50 for inhibition of histamine-induced eosinophil shape change
  IC50: 1500 nM

## CN1CCN(C(=O)c2cc3ccc(Br)cc3[nH]2)CC1 [(6-Bromo-1H-indol-2-yl)-(4-methyl-piperazin-1-yl)-methanone]
[1]
  Ki: 188 nM

## CN1CCN(C(=O)c2nc3cc(F)c(F)cc3[nH]2)CC1 [(5,6-Difluoro-1H-benzoimidazol-2-yl)-(4-methyl-piperazin-1-yl)-methanone]
[2]
  inhibition at 1 µM: 72%
  inhibition at 10 µM: 97%

## Cc1csc2cc(C(=O)N3CCN(C)CC3)[nH]c12 [(4-Methyl-piperazin-1-yl)-(3-methyl-4H-thieno[3,2-b]pyrrol-5-yl)-methanone]
[2]
  inhibition at 1 µM: 60%

## CN1CCN(C(=O)c2cc3ccc(Cl)cc3[nH]2)CC1 [(6-Chloro-1H-indol-2-yl)-(4-methyl-piperazin-1-yl)-methanone]
[1]
  Ki: 124 nM

## Cc1ccc2[nH]c(C(=O)NC3CC4CCC(C3)N4C)nc2c1 (centres unmarked) [5-Methyl-1H-benzoimidazole-2-carboxylic acid(8-methyl-8-aza-bicyclo[3.2.1]oct-3-yl)-amide]
[2]
  inhibition at 1 µM: 66%
  inhibition at 10 µM: 27%

## O=C(c1nc2cc(Cl)ccc2[nH]1)N1CCNCC1 [(5-Chloro-1H-benzoimidazol-2-yl)-piperazin-1-yl-methanone]
[2]
  inhibition at 1 µM: 8%
  inhibition at 10 µM: 101%

## C[C@@H]1CN(C(=O)c2cc3cc(Cl)ccc3[nH]2)CCN1 [(5-Chloro-1H-indol-2-yl)-((R)-3-methyl-piperazin-1-yl)-methanone]
[1]
  Ki: 34 nM

## CN1CCN(C(=O)c2cc3cccc(Br)c3[nH]2)CC1 [(7-Bromo-1H-indol-2-yl)-(4-methyl-piperazin-1-yl)-methanone]
[1]
  Ki: 55 nM

## CC1CN(C(=O)c2cc3ccccc3[nH]2)CCN1 (centres unmarked) [(1H-Indol-2-yl)-(3-methyl-piperazin-1-yl)-methanone]
[1]
  Ki: 100 nM

## CN1CCN(C(=O)c2cc3ccc(O)cc3[nH]2)CC1 [(6-Hydroxy-1H-indol-2-yl)-(4-methyl-piperazin-1-yl)-methanone]
[1]
  Ki: 32.5 nM

## CN1CCN(C(=O)c2cc3cc([N+](=O)[O-])ccc3[nH]2)CC1 [(4-Methyl-piperazin-1-yl)-(5-nitro-1H-indol-2-yl)-methanone]
[1]
  Ki: 46 nM

## CN1CCN(C(=O)c2cc3cc(F)cc(F)c3[nH]2)CC1 [(5,7-Difluoro-1H-indol-2-yl)-(4-methyl-piperazin-1-yl)-methanone]
[2]
  inhibition at 1 µM: 100%
[1]
  Ki: 19 nM

## CN1CCN(C(=O)c2cc3cc(Cl)sc3[nH]2)CC1 [(2-Chloro-6H-thieno[2,3-b]pyrrol-5-yl)-(4-methyl-piperazin-1-yl)-methanone]
[2]
  inhibition at 1 µM: 103%
  inhibition at 10 µM: 106%
